Test results published in patent US8338471B2, “(2,5-dioxoimidazolidin-i-yl)-n-hydroxy-acetamides as metalloproteinase inhibitors” (Medivir AB, priority 2005, dated 2012).

Tests used:
Type in all cases: biochemical
recombinant human TACE = target: T1, recombinant human TACE (Homo sapiens, UniProt P78536); experiment: TACE enzyme assay (FRET substrate), selectivity versus MMP-12; settings: fold difference in Ki for TACE compared to MMP-12
T1 construct: purchased R&D Systems
Description: The activity was measured by a continuous detection of increased fluorescence intensity during 12 min. The substrate consisted of a peptide with a fluorescent donor 7-methoxycoumarin (Mca) and a quenching acceptor 2,4-dinitrophenyl group (Dpa), typically Mca-P-L-A-Q-A-V-Dpa-R-S-S-S-R-NH2 (R&D Systems, ES003). The cleavage site by TACE is the peptide bond between Ala and Val. The compounds were tested at a range of concentrations while the enzyme and substrate concentrations were fixed. A typical TACE assay employs recombinant human TACE (supplied by R&D Systems) in an assay buffer (25 mM Tris-HCl, pH=9.0, 2.5 μM ZnCl2, 0.005% Brij 35). The enzyme concentration (TACE) used was 100 ng/ml, the substrate was prepared at a 100 μM stock solution in DMSO and a 96-well polypropylene plate was used for the reaction mixtures. To each well of the plate was added assay buffer 90.0 μl, enzyme (TACE) 0.09 μl and inhibitor 1 μl. The reactions were started by addition of substrate 10 μl/well, giving a substrate concentration of 10 μM and a total volume of 100 μl/well. The total concentration of DMSO was not above 1%. The assay was performed at ambient temperature. Product fluorescence ([…]) was monitored with a Thermo Labsystems Fluoroskan Ascent plate reader. The Ki was determined by Prism Software.
(§1) The selectivity for MMP-12 over MMP-3 and TACE was evaluated for a representative selection of the compounds of the invention by comparing the Ki figures obtained when tested in the corresponding enzyme assays, such as those described above. The selectivity is presented as the fold difference in Ki for TACE and MMP-3 compared to MMP-12 and is calculated as the ratio Ki(TACE)/KiMMP-12 and Ki(MMP-3)/KiMMP-12 respectively.

recombinant human MMP-3 = target: T2, recombinant human MMP-3 (Homo sapiens, UniProt P08254); experiment: MMP-3 enzyme assay (FRET substrate), selectivity versus MMP-12; settings: fold difference in Ki for MMP-3 compared to MMP-12
T2 construct: purchased R&D Systems
T2 sequence (P08254 100-477): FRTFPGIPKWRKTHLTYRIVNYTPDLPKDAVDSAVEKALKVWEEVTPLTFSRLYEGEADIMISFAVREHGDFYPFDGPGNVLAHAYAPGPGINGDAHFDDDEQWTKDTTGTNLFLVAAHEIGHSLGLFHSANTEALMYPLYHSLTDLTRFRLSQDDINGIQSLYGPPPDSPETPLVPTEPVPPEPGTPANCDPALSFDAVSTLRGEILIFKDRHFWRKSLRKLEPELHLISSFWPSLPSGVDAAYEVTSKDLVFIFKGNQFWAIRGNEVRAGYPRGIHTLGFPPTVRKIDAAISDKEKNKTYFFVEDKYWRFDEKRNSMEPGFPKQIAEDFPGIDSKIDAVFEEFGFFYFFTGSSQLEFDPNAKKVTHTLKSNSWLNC
Description: The activity was measured by a continuous detection of increased fluorescence intensity during 12 min. The substrate consisted of a peptide with a fluorescent donor 7-methoxycoumarin (Mca) and a quenching acceptor 2,4-dinitrophenyl group (Dpa), typically Mca-Arg-Pro-Lys-Pro-Val-Glu-Nval-Trp-Arg-Lys(Dnp)-NH2 (R&D Systems, ES002). The cleavage site by MMP-3 is the peptide bond between Glu and Nval. The compounds were tested at a range of concentrations, the enzyme concentration (MMP-3) was fixed at 400 ng/ml and the substrate concentrations was 10 μM. The MMP-3 assay used employs recombinant human MMP-3 (supplied by R&D Systems) in an assay buffer of 50 mM Tris-HCl, 200 mM calcium acetate at pH=7.5. The MMP-3 enzyme was preactivated by dilution to 0.119 mg/ml into 1 mM APMA (p-aminophenylmercuric acetate) followed by incubation at 37° C. for 24 hours. The substrate was prepared at a 100 μM stock solution in DMSO and a 96-well polypropylene plate was used for the reaction mixtures. To each well of the plate was added assay buffer 90.0 μl, enzyme (MMP-3) 0.3 μl and inhibitor 1 μl. The reactions were started by addition of substrate, 10 μl/well, to a total volume of 100 μl/well. The total concentration of DMSO was not above 1%. The assay was performed at ambient temperature. Product fluorescence ([…]) was monitored with a Thermo Labsystems Fluoroskan Ascent plate reader. The Ki was determined by Prism Software.
as §1

recombinant human MMP-12 = target: T3, recombinant human MMP-12 (Homo sapiens, UniProt P39900); experiment: MMP-12 enzyme assay (FRET substrate)
T3 construct: purchased R&D Systems; host or cells: mouse myeloma cell line NS-40 (so in the source)
T3 sequence (P39900 106-470): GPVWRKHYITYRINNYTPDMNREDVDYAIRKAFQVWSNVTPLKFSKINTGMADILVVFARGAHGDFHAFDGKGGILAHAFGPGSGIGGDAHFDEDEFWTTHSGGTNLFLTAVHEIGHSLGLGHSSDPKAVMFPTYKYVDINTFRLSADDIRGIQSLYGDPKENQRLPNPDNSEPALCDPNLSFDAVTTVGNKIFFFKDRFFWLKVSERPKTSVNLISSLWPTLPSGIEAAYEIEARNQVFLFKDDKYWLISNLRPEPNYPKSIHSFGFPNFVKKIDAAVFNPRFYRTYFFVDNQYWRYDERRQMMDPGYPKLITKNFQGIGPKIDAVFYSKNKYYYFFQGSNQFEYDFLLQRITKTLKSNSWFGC
Description: A typical MMP-12 enzyme assay employs recombinant human MMP-12 catalytic domain expressed and purified as described by Parkar A. A. et al, (2000), Protein Expression and Purification, 20:152. The purified enzyme can be used to monitor inhibitors of activity as follows: MMP-12 (50 ng/ml final concentration) is incubated for 60 minutes at room temperature with the synthetic substrate Mac-Pro-Cha-Gly-Nva-His-Ala-Dpa-NH2 in assay buffer (0.1M “Tris-HCl” (trade mark) buffer, pH 7.3 containing O.1M NaCl, 20 mM CaCl2, 0.020 mM ZnCl and 0.05% (w/v) “Brij 35” (trade mark) detergent) in the presence (5 concentrations) or absence of inhibitors. Activity is determined by measuring the fluorescence at λex 320 nm and λem 405 nm. Percent inhibition is calculated as follows: % Inhibition is equal to the (Fluorescenceplus inhibitor−Fluorescencebackground); divided by the (Fluorescenceminus inhibitor−Fluorescencebackground);
A favoured assay employs full length recombinant human MMP-12, amino acid residues 1 to 470 (Shapiro et al 1993, J Biol Chem 268:23824-23829) expressed in mouse myeloma cell line NS-40. The purified rhMMP-12 typically has the N terminal sequence L17PLNSSTSLE and an SDS-PAGE apparent molecular mass of approx. 56 kDa. Such proteins are available from R&D Systems, USA as a lyophilised 0.2 um filtered solution of 25 mM MES, 0.15M NaCl, 10 mMCaCl2, 0.15% Brij 35, pH 5.5. Auto-activation of the rhMMP-12 can be achieved by dilution to 0.05 mg/ml into TCNB buffer (50 mMTris, 10 mM CaCl2, 0.15M NaCl, 0.05% Brij 35, pH 7) and incubation at 37 degrees for 30 hours. A preferred buffer for MMP work is 50 mM Tris.HCl, pH 7.5, 200 mM Ca acetate.
Suitable FRET substrates include (7-methoxycoumarin-4-yl)acetyl-Pro-Leu-Gly-Leu-(3-(2,4-dinitrophenoyl)-L-2,3-diaminopropionyl)-Ala-Arg-NH2, commercially available from R&D Systems, USA. Typical specific activities are >500 picomol/min/ug, with rhMMP-12 measured with 10 uM of this substrate, 20 ng activated enzyme in 100 ul TCNB buffer at room temperature.
An alternative general MMP substrate is Dnp-PLGLWAD-R-NH2.
Category A indicates ≦50 nM inhibition, category B indicates 51-200 nM inhibition and category C indicates >200 nM: […]

T1 sequence (P78536 215-824): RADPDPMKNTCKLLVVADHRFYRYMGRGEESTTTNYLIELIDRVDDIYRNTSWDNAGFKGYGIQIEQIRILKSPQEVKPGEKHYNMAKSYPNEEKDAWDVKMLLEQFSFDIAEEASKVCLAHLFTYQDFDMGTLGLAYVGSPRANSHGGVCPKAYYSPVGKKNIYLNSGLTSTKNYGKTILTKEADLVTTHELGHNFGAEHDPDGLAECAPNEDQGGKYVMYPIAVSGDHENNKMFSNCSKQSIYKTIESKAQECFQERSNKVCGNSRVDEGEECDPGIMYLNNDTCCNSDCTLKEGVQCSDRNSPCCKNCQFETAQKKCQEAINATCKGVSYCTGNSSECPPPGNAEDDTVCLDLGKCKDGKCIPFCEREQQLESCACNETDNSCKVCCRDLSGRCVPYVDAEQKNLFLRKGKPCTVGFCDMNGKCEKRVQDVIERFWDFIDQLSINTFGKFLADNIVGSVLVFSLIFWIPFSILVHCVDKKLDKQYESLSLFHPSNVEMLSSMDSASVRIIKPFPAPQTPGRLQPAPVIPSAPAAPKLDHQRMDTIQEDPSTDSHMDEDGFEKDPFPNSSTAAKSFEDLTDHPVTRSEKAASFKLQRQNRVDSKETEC

Row | SMILES | Ki(TACE)/Ki(MMP-12) (recombinant human TACE) | Ki(MMP-3)/Ki(MMP-12) (recombinant human MMP-3) | Ki (recombinant human MMP-12)
1 | CC(C)[C@H](C(=O)NO)N1C(=O)N[C@@H](CCc2ccc(-c3ccccc3)cc2)C1=O (stereo in doubt) [Example 5, 2-[4-(2-Biphenyl-4-yl-ethyl)-2,5-dioxo-imidazolidin-1-yl]-N-hydroxy-3-methyl-butyramide] | >4500 | 71 | –
2 | CC(C)[C@H](C(=O)NO)N1C(=O)N[C@@H](COCc2ccc(Br)cc2)C1=O (stereo in doubt) [Example 13i, 2-[4-(4-Bromobenzyloxymethyl)-2,5-dioxo-imidazolidin-1-yl]-N-hydroxy-3-methyl-butyramide] | >190 | >190 | –
3 | CC(C)[C@H](C(=O)NO)N1C(=O)N[C@@H](CCc2ccc(Oc3ccccc3)cc2)C1=O (stereo in doubt) [Example 26, 2-{2,5-Dioxo-4-[2-(4-phenoxyphenyl)-ethyl]-imidazolidin-1-yl}-N-hydroxy-3-methyl-butyramide] | – | – | ≤ 50 nM
4 | CC(C)[C@H](C(=O)NO)N1C(=O)N[C@@H](CCc2ccccc2)C1=O [Example 1] | 380 | 140 | –
5 | CC(C)[C@H](C(=O)NO)N1C(=O)N[C@H](CCc2ccccc2)C1=O [Example 7, 2-(2,5-Dioxo-4-phenethyl-imidazolidin-1-yl)-N-hydroxy-3-methyl-butyramide] | >80 | 53 | 51 to 200 nM
6 | O=C(NO)[C@@H](Cc1ccccc1)N1C(=O)N[C@@H](CCc2ccccc2)C1=O [Example 10, 2-(2,5-Dioxo-4-phenethyl-imidazolidin-1-yl)-N-hydroxy-3-phenhyl-propionamide] | >150 | 34 | ≤ 50 nM
7 | CC(C)(C)[C@H](C(=O)NO)N1C(=O)N[C@@H](CCc2ccccc2)C1=O [Example 12, 2-(2,5-Dioxo-4-phenethyl-imidazolidin-1-yl)-N-hydroxy-3,3-dimethyl-butyramide] | 245 | 122 | –
8 | CC(C)[C@H](C(=O)NO)N1C(=O)N[C@@H](COCc2ccc(C(F)(F)F)cc2)C1=O [Example 14, 2-[2,5-Dioxo-4-(4-trifluoromethyl-bezyloxymethyl)-imidazolidin-1-yl]-N-hydroxy-3-methyl-butyramide] | >500 | >500 | ≤ 50 nM
9 | CC(C)[C@H](C(=O)NO)N1C(=O)N[C@@H](COCc2cccc(F)c2)C1=O [Example 15, 2-[4-(3-Fluorobenzyloxymethyl)-2,5-dioxo-imidazolidin-1-yl]-N-hydroxy-3-methyl-butyramide] | >700 | 120 | 51 to 200 nM
10 | CC(C)[C@H](C(=O)NO)N1C(=O)N[C@@H](CCCCNC(=O)c2ccccc2)C1=O [Example 25h] | – | – | > 200 nM
11 | Cc1ccccc1CCC1NC(=O)N(C(C(=O)NO)C(C)C)C1=O (centres unmarked) [Example 28, 2-[2,5-Dioxo-4-(2-o-tolylethyl)-imidazolidin-1-yl]-N-hydroxy-3-methyl-butyramide] | – | – | ≤ 50 nM
12 | Cc1cccc(CCC2NC(=O)N(C(C(=O)NO)C(C)C)C2=O)c1 (centres unmarked) [Example 29, 2-[2,5-Dioxo-4-(2-m-tolylethyl)-imidazolidin-1-yl]-N-hydroxy-3-methyl-butyramide] | – | – | ≤ 50 nM
13 | COc1ccccc1CCC1NC(=O)N(C(C(=O)NO)C(C)C)C1=O (centres unmarked) [Example 31, N-Hydroxy-2-{4-[2-(2-methoxyphenyl)-ethyl]-2,5-dioxo-imidazolidin-1-yl}-3-methyl-butyramide] | – | – | ≤ 50 nM
14 | COc1cccc(CCC2NC(=O)N(C(C(=O)NO)C(C)C)C2=O)c1 (centres unmarked) [Example 32, N-Hydroxy-2-{4-[2-(3-methoxyphenyl)-ethyl]-2,5-dioxoimidazolidin-1-yl}-3-methylbutyramide] | 140 | >200 | –
15 | COc1ccc(CC[C@@H]2NC(=O)N([C@@H](C(=O)NO)C(C)C)C2=O)cc1 [Example 33, N-Hydroxy-2-{4-[2-(4-methoxyphenyl)-ethyl]-2,5-dioxoimidazolidin-1-yl}-3-methylbutyramide] | – | – | ≤ 50 nM
16 | CCc1ccc(CC[C@@H]2NC(=O)N([C@@H](C(=O)NO)C(C)C)C2=O)cc1 [Example 34, 2-{4-[2-(4-Ethylphenyl)-ethyl]-2,5-dioxoimidazolidin-1-yl}-N-hydroxy-3-methyl-butyramide] | – | – | ≤ 50 nM
17 | CC(C)[C@H](C(=O)NO)N1C(=O)N[C@@H](CCc2cccc(F)c2)C1=O [Example 37, 2-{4-[2-(3-Fluoro-phenyl)-ethyl]-2,5-dioxoimidazolidin-1-yl}-N-hydroxy-3-methylbutyramide] | – | – | ≤ 50 nM
18 | CC(C)[C@H](C(=O)NO)N1C(=O)N[C@@H](CCc2ccc(Cc3ccccc3)cc2)C1=O [Example 39, 2-{4-[2-(4-Benzylphenyl)-ethyl]-2,5-dioxoimidazolidin-1-yl}-N-hydroxy-3-methylbutyramide] | – | – | ≤ 50 nM
19 | CC(C)[C@H](C(=O)NO)N1C(=O)N[C@@H](CCc2ccc(C(=O)Cc3ccccc3)cc2)C1=O [Example 40, 2-{2,5-Dioxo-4-[2-(4-phenylacetyl-phenyl)-ethyl]-imidazolidin-1-yl}-N-hydroxy-3-methylbutyramide] | – | – | ≤ 50 nM
